# pIC50: −log10 of the molar value. Entries after “also recorded” stand apart in the source; their conditions may differ.
# What was measured:
# ROCK2 = settings: ref [36] (RKI-1447), [37], [38] (Fasudil), [39]–[43] (Y-27632), [44], [45] (GSK-429286); read-out: Target IC50 ROCK2; cited from earlier work
# ROCK1 = settings: ref [36] (RKI-1447), [37], [38] (Fasudil), [39]–[43] (Y-27632), [44], [45] (GSK-429286); read-out: Target IC50 ROCK1; cited from earlier work
# [1] = test system: hSC-CMs (Cor.4U Cardiomyocytes); test: Apoptosis assay (CellEvent Caspase-3/7 Green, IncuCyte ZOOM kinetics over 24 h); format: cell-based, human; parameters: key to Caspase / Caspase MEAN: % of time-matched vehicle control (green object area); settings: for Caspase: normalized to time-matched vehicle control
# Outline: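 Cor.4U cardiomyocytes were cultured 4 days at 5% CO2 and 37 °C, given a 2 h baseline, then treated with compound for 24 h. Caspase-3/7 green nuclear signal was imaged every 2 h, and total green object area per well (μm^2/well) was normalized to the time-matched vehicle control. At least three replicates were run per concentration.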
# [2] = test system: hSC-CMs (Cor.4U Cardiomyocytes); test: ATP assay (CellTiter-Glo Luminescent Cell Viability Assay); format: cell-based, human; settings: normalized to time-matched DMSO control
# Outline: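 Human stem-cell-derived Cor.4U cardiomyocytes (25,000–30,000/well), cultured 4 days at 37 °C, switched to serum-free BMCC medium 12 h before dosing. Cellular ATP quantified by CellTiter-Glo luminescence and normalized to time-matched DMSO controls; at least three replicates per concentration.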
# [3] = test system: hSC-CMs (Cor.4U Cardiomyocytes); test: CardioExcyte 96 impedance and EFP recording (beating rate, base impedance); format: cell-based, human; settings: for BR / Base Imp: vs baseline before drug (taken as 100%)
# Outline: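 hSC-CM monolayers (Cor.4U), cultured 4 days at 37 °C, 5% CO2, recorded spontaneously beating; impedance sampled at 1 kHz, EFP at 10 kHz. Beating rate taken as reciprocal of inter-spike interval in EFP. Each test concentration expressed as fractional change versus pre-drug baseline (100%).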
compound,measurement,setting,value
CC1=C(C(=O)Nc2cc3cn[nH]c3cc2F)C(c2ccc(C(F)(F)F)cc2)CC(=O)N1 (stereo not drawn) [GSK-429286],pIC50,ROCK2,7.20
same,pIC50,ROCK1,7.85
same,Caspase,"[1]; 0.01 µM, 2h",95
same,Caspase,"[1]; 0.01 µM, 24h",97
same,Caspase,"[1]; 0.1 µM, 2h",109
same,Caspase,"[1]; 0.1 µM, 24h",103
same,Caspase,"[1]; 1 µM, 2h",104
same,Caspase,"[1]; 1 µM, 24h",105
same,Caspase,"[1]; 10 µM, 2h",116
same,Caspase,"[1]; 10 µM, 24h",127
same,"Apoptosis (caspase-3/7 activity) at the highest test concentration, in words","[1]; top / highest test concentration, over 24 h",marginal effects
same,ATP,"[2]; 0.01 µM, 2h",101
same,ATP,"[2]; 0.01 µM, 24h",101
same,ATP,"[2]; 0.1 µM, 2h",101
same,ATP,"[2]; 0.1 µM, 24h",96
same,ATP,"[2]; 1 µM, 2h",102
same,ATP,"[2]; 1 µM, 24h",96
same,ATP,"[2]; 10 µM, 2h",104
same,ATP,"[2]; 10 µM, 24h",102
same,BR,"[3]; 0.01 µM, 2h",102
same,Base Imp,"[3]; 0.01 µM, 2h",99
same,BR,"[3]; 0.01 µM, 24h",100
same,Base Imp,"[3]; 0.01 µM, 24h",92
same,BR,"[3]; 0.1 µM, 2h",102
same,Base Imp,"[3]; 0.1 µM, 2h",91
same,BR,"[3]; 0.1 µM, 24h",106
same,Base Imp,"[3]; 0.1 µM, 24h",85
same,BR,"[3]; 1 µM, 2h",105
same,Base Imp,"[3]; 1 µM, 2h",83
same,BR,"[3]; 1 µM, 24h",109
same,Base Imp,"[3]; 1 µM, 24h",72
same,BR,"[3]; 10 µM, 2h",98
same,Base Imp,"[3]; 10 µM, 2h",69
same,BR,"[3]; 10 µM, 24h",88
same,Base Imp,"[3]; 10 µM, 24h",58
same,"Effect on base impedance, in words","[3]; hSC-CMs, 2 and 24 h",concentration-and time-dependent decrease in base impedance; also recorded: concentration-dependent effects

# From PMC8242589, “Cardiac Safety of Kinase Inhibitors – Improving Understanding and Prediction of Liabilities in Drug Discovery Using Human Stem Cell-Derived Models” (Frontiers in Cardiovascular Medicine, 2021)
